Test results from US10507207B2, “Non-nucleosidic inhibitors of reverse transcriptase as antagonists of cell proliferation and inducers of cell differentiation” (ISTITUTO SUPERIORE DI SANITA, priority 2001, dated 2019).

Columns and labels:
[1] = test system: HL60 cells; assay: Cytofluorimetric analysis of cell surface markers; type: cell-based, human; conditions: HL60, RA 1 μM, 4 days
Description: (§1) The induction of CD11b is associated with granulocytic differentiation, CD14 is considered a monocytic specific antigen and CD15 is a myelomonocytic antigen. Simultaneous induction of CD14 and CD11b relates to monocytic differentiation. […] In nevirapine-treated NB4 and HL60 cells, a strong induction of expression of CD15, and, to a lesser degree, CD11b and CD14 markers was detected.

[2] = test system: NB4 cells; assay: Cytofluorimetric analysis of cell surface markers; type: cell-based, human; conditions: NB4, RA 1 μM, 4 days
Description: as §1

[3] = test system: NB4 cells; assay: Growth, viable cell count; type: cell-based, human; conditions: NB4, RA 1 μM, 4 days
[4] = test system: HL60 cells; assay: Growth, viable cell count; type: cell-based, human; conditions: HL60, RA 1 μM, 4 days
[5] = test system: NB4 cells; assay: NBT dye reduction assay; type: cell-based, human; conditions: NB4, RA 1 μM, 4 days
[6] = test system: HL60 cells; assay: NBT dye reduction assay; type: cell-based, human; conditions: HL60, RA 1 μM, 4 days
[7] = test system: early mouse embryos; assay: Early mouse embryo cultures from in vitro fertilization (IVF) assays; conditions: added to cultures of IVF embryos; preliminary studies
[8] = test system: F9 teratocarcinoma cells; assay: Cell proliferation by cell counting; type: cell-based, murine; conditions: efavirenz 10 and 20 μM, dose-dependent, vs non-exposed cells
Experimental: (§2) NIH/3T3 embryo fibroblasts and F9 teratocarcinoma cells were cultured in DMEM containing 10-20% fetal serum and two concentrations of efavirenz, i.e. 10 and 20 μM, diluted from a stock solution (10 mM) in 100% DMSO. Cells were plated at a density of 2-5×10^4 in 35 mm Petri dishes and exposed to efavirenz 5-6 hours later. Samples were withdrawn at specific times and cells were counted in efavirenz-exposed compared to parallel non-exposed cell cultures.

[9] = test system: NIH/3T3 embryo fibroblasts; assay: Cell proliferation by cell counting; type: cell-based, murine; conditions: efavirenz 10 and 20 μM, dose-dependent, vs non-exposed cells
Experimental: as §2

[10] = test system: Saos-2 osteosarcoma cells; assay: Cell proliferation by cell counting; type: cell-based, human; conditions: 20 μM efavirenz
Experimental: Samples were withdrawn at specific times and cells were counted in nevirapine-exposed and control (DMSO-exposed) cultures. […] Saos-2 osteosarcoma cells were the most slowly responsive type, and only after 5 days of exposure did the growth rate begin to decrease compared to control cultures.
(§3) The effect of efavirenz was further tested in human HeLa adenocarcinoma and Saos-2 osteosarcoma cells. Both cell lines were cultured in the conditions described above (Example 6). To establish if prolonged exposure to the drug improved the effectiveness of growth inhibition, both cell lines were exposed to efavirenz in two subsequent cycles: during the 1st cycle cells were continuously exposed to 20 μM efavirenz for 5 days; cells were then diluted, reseeded again and the 2nd cycle exposure was initiated the following day with fresh drug. […] The inhibitory effect was time-dependent, since in both HeLa and Saos-2 cultures, the 1st cycle of exposure (5 days) yielded a 1.6- and 1.5-fold reduction, respectively, whereas a 5- and 4-fold reduction was obtained in the 2nd cycle (carried out until day 20 from the onset of exposure).

[11] = test system: HeLa adenocarcinoma cells; assay: Cell proliferation by cell counting; type: cell-based, human; conditions: 20 μM efavirenz
Experimental: as §3

[12] = test system: Morris 3924A hepatoma; assay: Morris 3924A rat hepatoma in vivo; conditions: efavirenz 1 mg/rat/day from day of inoculation; two treated rats; controls died at 27th day
Experimental: Rat strain: ACI/T inbred (about 180 gr)
Tumor: Morris 3924A hepatoma is a fast-growing tumor which develops in inbred ACI/T animals. Three weeks after inoculation the tumor size is about 10 cm^3.
Preparation of tumor cells: hepatoma tumor cells are prepared from the animal about two weeks after inoculation. The tumor is surgically removed from the animal, separated from connective and necrotic tissues and minced in small pieces. Tumor fragments are then suspended in sterile physiological solution and inoculated in the internal site of one thigh using a 20 ml-syringe with a large size needle. Routinely 0.5 ml of cell suspension are injected. The success rate of tumor implantation is nearly 99%.
On the eleventh day, hepatoma cells were inoculated subcutaneously in pre-treated and in three non-treated control rats.
Procedures and Results: Morris hepatoma cells were inoculated in 4 rats ([…]). The same day, treatment with efavirenz was initiated in two of them by injecting 1 mg/rat/day.

[13] = 2nd cycle (until day 20 from onset of exposure)

SMILES | CD11b mean fluorescence intensity [1] [AU] | CD14 mean fluorescence intensity [1] [AU] | CD15 mean fluorescence intensity [1] [AU] | CD11b mean fluorescence intensity [2] [AU] | CD14 mean fluorescence intensity [2] [AU] | CD15 mean fluorescence intensity [2] [AU] | Viable cells N^0 × 10^5 [3] | Viable cells N^0 × 10^5 [4] | NBT+ (%) [5] [%] | NBT+ (%) [6] [%] | development of early mouse embryos [7] | rate of proliferation [8] | rate of proliferation [9] | reduction in the rate of cell growth ([10]; 1st cycle of exposure (5 days)) [fold] | reduction in the rate of cell growth [10, 13] [fold] | reduction in the rate of cell growth ([11]; 1st cycle of exposure (5 days)) [fold] | reduction in the rate of cell growth [11, 13] [fold] | tumor development in treated rats [12]
CC1=C(/C=C/C(C)=C/C=C/C(C)=C/C(=O)O)C(C)(C)CCC1 [RA, retinoic acid] | 15.3 | 23.7 | 609.7 | 53.7 | 19.1 | 421.7 | 1.4 ± 0.1 × 10^5 | 6.5 ± 0.9 × 10^5 | 80.6 ± 4.5 | 31.2 ± 1.4 | – | – | – | – | – | – | – | –
O=C1Nc2ccc(Cl)cc2[C@@](C#CC2CC2)(C(F)(F)F)O1 [efavirenz, (−)-6-chloro-4-cyclopropylethynyl-4-trifluoromethyl-1,4,-dihydro-2H-3,1-benzoxazine-one] | – | – | – | – | – | – | – | – | – | – | early and effective developmental arrest | decreases the rate of proliferation | decreases the rate of proliferation | 1.5 | 4 | 1.6 | 5 | only one of two treated animals developed a tumor of markedly smaller size, whereas the other remained totally healthy
